Source: patent US20200113902A1, “COMPOSITIONS AND METHODS FOR TREATING CANCERS WITH COVALENT INHIBITORS OF CYCLIN-DEPENDENT KINASE 7 (CDK7)” (Syros Pharmaceuticals, Inc., priority 2017, published 2020)

What was measured:
[1] = test system: Rad51, CHEK1 and CHEK2 RNA in THP1 cells; test: Microarray RNA levels of DNA damage repair genes, THP1; format: cell-based; details: THP1 AML cells; 100 nM, 6 hrs
Method: THP1 is an AML cell line. THP1 cells (1×10^6/well) were plated in 6-well plates and treated with vehicle (DMSO), 100 nM Compound 1, 25 nM NVP2 (a CDK9 inhibitor), 250 nM JQ1 (a BRD4 inhibitor) or 200 nM Flavopiridol (a pan-CDK inhibitor) for 6 hrs, after which cells were harvested and total RNA (1,000 ng) isolated. RNA levels of the DNA damage repair genes Rad51, CHEK1 and CHEK2 were analyzed by microarray. Experiments were done in triplicates. We performed RMA normalization of the data using the “affy” package from Bioconductor. The command used is shown below and includes background correction, normalization and summarization:
Next, we performed loess normalization using only spike-ins to enable comparison of expression values across multiple samples.

OV14702 xenograft = test: Ovarian PDX OV14702, tumor volume; format: in vivo, mouse; details: OV14702 (RB1 null); 40 or 30 mg/kg i.v. BIW
Method: (§1) Patient-derived xenograft (PDX) models from ovarian carcinoma patients (OV5387, OV14702, OV14972, OV15398, OV15576, OV15696, OV15612, OV15631) were established in NOD-SCID mice at Crown Bioscience (San Diego, USA). Cryo vials containing tumor cells were thawed and prepared for injection into mice. Cells were washed in PBS, counted, and resuspended in cold PBS at a concentration of 50,000-100,000 viable cells/100 ul. Cell suspensions were mixed with an equal volume of Cultrex ECM and kept on ice during transport to the vivarium. Cells were prepared for injections by withdrawing ECM-Cell mixture into a chilled slip-tip syringe fitted with a 26G 7/8 (0.5 mm×22 mm) needle. The filled syringes were kept on ice to avoid the solidification of ECM. Each mouse was inoculated subcutaneously in the right flank with 200 uL of the cell suspension. Tumor sizes were measured in two dimensions using a caliper, and the volumes were expressed in mm3 using the formula: V=0.5 a×b^2 where a and b are the longest and shortest diameters of the tumor, respectively. Compound 1 treatment was started when the average tumor size reached 150-200 mm^3.
(§2) Compound 1 was formulated in w/v 20% Captisol (pH 4-6) and administered by i.v. twice weekly (BIW) at a final dose of 40 mg/kg or 30 mg/kg in a 10 ml/kg volume. Tumor volumes were measured twice weekly over the course of the study. […]

[2] = test system: ovarian carcinoma PDX models (OV5387, OV14702, OV14972, OV15398, OV15576, OV15696, OV15612, OV15631); test: Ovarian carcinoma patient-derived xenografts (eight models), tumor volume; format: in vivo, mouse; details: 40 mg/kg or 30 mg/kg i.v. BIW; four did not respond
Method: as §1, §2

[3] = test system: MCL1 protein in CAL-120 cells; test: Western blot of BCL2 family proteins, CAL-120; format: cell-based, human; details: 50 nM or 100 nM, 24 hours
Method: (§3) Cytotoxic cancer cell lines HCC70 and TOV21G, and cytostatic cancer cell lines T47D and COV318 were seeded in wells of a six-well dish at a density of 1×10^6 cells/well and allowed to adhere overnight. Cells were then treated with 50 nM of Compound 1 for 16 or 24 hours, or with DMSO (0 hours) representing a negative control. Cells were harvested and placed on ice, and resuspended in RIPA lysis buffer supplemented with protease and phosphatase inhibitors. Clarified lysates prepared with 4×LSD running buffer and boiled at 95° C. for 5 minutes. Equivalent amounts of sample (10 μg total protein) were run on a 4-12% Bis-Tris gel and transferred to a PDVF membrane for Western blotting using standard Western blotting protocols. Membranes were blocked with Licor TBS blocking buffer then probed with antibodies for BCL-XL, BCL-2, MCL1, BID, and GAPDH visualized using and Odyssey imager (FIGS. 23A and 23D).
In a similar experiment, TNBC breast cancer cell lines HCC70, MDAMB468, MDAMB453 and CAL-120 were grown as described above and treated with DMSO, 50 nM Compound 1 or 100 nM Compound 1 for 24 hours. Protein samples were prepared as described above for Western blotting using antibodies specific for the indicated proteins in FIG. 29A. […]

[4] = test system: MCL1 protein in OCI-AML3 cells; test: Western blot, AML cell line OCI-AML3; format: cell-based; details: 50 nM
Method: as §3
We next explored the expression of MCL1, BCL-XL and BCL2 in four different AML cell lines. MV411, OCI-AML3 and KG1 cells were separately grown and prepared as described in Example 2 for Western blotting, using antibodies specific for BCL2 (FIG. 24A), BCL-XL, MCL-1 and tubulin as an internal control (FIG. 24B).

[5] = test system: Rad51, CHEK1 and CHEK2 mRNA in MDA-MB-468, MDA-MB-231, Ca1120 and MDA-MB-453; test: Quantitative PCR of DNA damage repair genes, breast cancer cell lines; format: cell-based; details: 50 nM, 6 hrs
Method: Breast cancer cell lines MDA-MB-468, MDA-MB-231, Ca1120 and MDA-MB-453 were plated at 200,000 cells/well in a 6-well plate the day before treatment. The next day the cells were treated with vehicle, 50 nM Compound 1 or 50 nM Paclitaxel for 6 hrs, after which cells were harvested and total RNA collected using RNeasy mini kit (Qiagen). Total RNA (500 ng) was reverse transcribed using Quantitect Reverse Transcription kit (Qiagen). Quantitative PCR for each of Rad51, CHEK1 and CHEK2 was performed on QuantStudio 6 Flex (Applied Biosystems) using Power SYBR green PCR master mix (Thermo Fisher Scientific) and primers specific for each of those genes. The change in gene expression, relative to housekeeping gene RPL27, was quantified using DDCt method.

CN(C)C/C=C/C(=O)Nc1ccc(C(=O)N[C@@]2(C)CCC[C@@H](Nc3ncc(Cl)c(-c4c[nH]c5ccccc45)n3)C2)nc1 [Compound 1, N-((1S,3R)-3-(5-chloro-4-(1H-indol-3-yl)pyrimidin-2-ylamino)-1-methylcyclohexyl)-5-((E)-4-(dimethylamino)but-2-enamido)picolinamide]
mRNA expression from genes involved in DNA repair (Rad51, CHEK1, CHEK2) [1]: Downregulation | Response to treatment (tumor growth) (OV14702 xenograft): responded | Response to treatment across eight ovarian PDX models (tumor growth vs historical untreated) [2]: four of the xenografts responded to treatment | MCL1 protein level (Western blot) [3]: downregulated | MCL1 protein level (Western blot) [4]: significant reduction in MCL1 | mRNA expression from genes involved in DNA repair (Rad51, CHEK1, CHEK2) [5]: Downregulation
